Results from the OligoGym collection.
HELM strings list units from the 5' end as sugar, base in round brackets, then linkage (d deoxyribose, r ribose, m 2'-O-methyl, p phosphodiester). Strings are as the collection lists them; they lack the last nucleoside at the 3' end of the tested compound. [moe] = 2'-O-(2-methoxyethyl) (MOE); [sp] = phosphorothioate linkage; [m5C] = 5-methylcytosine

What follows are substances tested against ATXN3 (assay: mouse, dose not given). Conditions: ASO.
Work on “RNA1{[moe](T)[sp].[moe](G)p.[moe]([m5C])p.[moe](T)p.[moe]([m5C])p.[moe](A)p.d(T)[sp].d(T)[sp].d(T)[sp].d(A)[sp].d(T)[sp].d(T)[sp].d([m5C])[sp].d(T)[sp].d([m5C])[sp].d(A)[sp].[moe](A)p.[moe](G)[sp].[moe](T)}$$$$ (last 3' nucleoside missing)” yielded a 3 h FOB score of 0 score 0-7. In the case of “RNA1{[moe](T)[sp].[moe](G)p.[moe]([m5C])p.[moe](T)p.[moe]([m5C])p.d(A)[sp].d(T)[sp].d(T)[sp].d(T)[sp].d(A)[sp].d(T)[sp].d(T)[sp].d([m5C])[sp].d(T)[sp].d([m5C])[sp].[moe](A)p.[moe](A)p.[moe](G)[sp].[moe](T)}$$$$ (last 3' nucleoside missing)”, the 3 h FOB score is reported as 1 score 0-7. “RNA1{[moe](T)[sp].[moe](T)p.[moe](T)p.[moe]([m5C])p.[moe](A)p.d(T)[sp].d(G)[sp].d(T)[sp].d(T)[sp].d([m5C])[sp].d([m5C])[sp].d(A)[sp].d(G)[sp].d(A)[sp].d(T)[sp].[moe]([m5C])p.[moe](A)p.[moe]([m5C])[sp].[moe]([m5C])}$$$$ (last 3' nucleoside missing)” gave a 3 h FOB score of 1 score 0-7. Work on “RNA1{[moe](T)[sp].[moe]([m5C])p.[moe](A)[sp].[moe]([m5C])[sp].[moe](A)[sp].d(A)[sp].d(T)[sp].d(G)[sp].d(A)[sp].d([m5C])[sp].d([m5C])[sp].d([m5C])[sp].d(T)[sp].d(T)[sp].d(T)[sp].[moe](T)[sp].[moe]([m5C])p.[moe](T)[sp].[moe](T)}$$$$ (last 3' nucleoside missing)” yielded a 3 h FOB score of 1.25 score 0-7. “RNA1{[moe]([m5C])[sp].[moe](A)p.[moe](A)p.[moe](T)p.[moe](A)[sp].d(T)[sp].d(T)[sp].d(T)[sp].d(A)[sp].d(T)[sp].d(A)[sp].d(G)[sp].d(G)[sp].d(T)[sp].d(G)[sp].[moe]([m5C])p.[moe](T)p.[moe](G)[sp].[moe]([m5C])}$$$$ (last 3' nucleoside missing)” gave a 3 h FOB score of 4.5 score 0-7. “RNA1{[moe]([m5C])[sp].[moe](A)p.[moe](A)p.[moe](T)p.[moe](A)p.d(T)[sp].d(T)[sp].d(T)[sp].d(A)[sp].d(T)[sp].d(A)[sp].d(G)[sp].d(G)[sp].d(T)[sp].d(G)[sp].[moe]([m5C])p.[moe](T)p.[moe](G)[sp].[moe]([m5C])}$$$$ (last 3' nucleoside missing)” was tested, and the 3 h FOB score was 4 score 0-7. “RNA1{[moe]([m5C])[sp].[moe](A)p.[moe](G)p.[moe]([m5C])p.[moe](A)p.[moe]([m5C])p.d([m5C])[sp].d(A)[sp].d(T)[sp].d(A)[sp].d(T)[sp].d(A)[sp].d(T)[sp].d(A)[sp].d(T)[sp].d([m5C])[sp].[moe](T)p.[moe]([m5C])[sp].[moe](A)}$$$$ (last 3' nucleoside missing)” was tested, and the 3 h FOB score was 0.625 score 0-7. “RNA1{[moe]([m5C])[sp].[moe](A)p.[moe]([m5C])p.[moe](A)p.[moe]([m5C])[sp].d(T)[sp].d(T)[sp].d(T)[sp].d([m5C])[sp].d([m5C])[sp].d(T)[sp].d([m5C])[sp].d([m5C])[sp].d(T)[sp].d([m5C])[sp].[moe](A)p.[moe](A)p.[moe](T)[sp].[moe]([m5C])}$$$$ (last 3' nucleoside missing)” showed a 3 h FOB score of 0 score 0-7. “RNA1{[moe]([m5C])[sp].[moe](A)p.[moe]([m5C])p.[moe]([m5C])p.[moe](A)[sp].d(T)[sp].d([m5C])[sp].d(T)[sp].d(T)[sp].d(T)[sp].d(G)[sp].d(A)[sp].d([m5C])[sp].d(A)[sp].d(A)[sp].[moe](G)p.[moe]([m5C])p.[moe](T)[sp].[moe](A)}$$$$ (last 3' nucleoside missing)” gave a 3 h FOB score of 1.25 score 0-7. In the case of “RNA1{[moe]([m5C])[sp].[moe](T)p.[moe](G)p.[moe](G)p.[moe](T)[sp].d([m5C])[sp].d(A)[sp].d(G)[sp].d(T)[sp].d(T)[sp].d(T)[sp].d([m5C])[sp].d([m5C])[sp].d(T)[sp].d(A)[sp].[moe](A)p.[moe](T)p.[moe](T)[sp].[moe](T)}$$$$ (last 3' nucleoside missing)”, the 3 h FOB score is reported as 0 score 0-7. “RNA1{[moe]([m5C])[sp].[moe](T)p.[moe](G)p.[moe](T)p.[moe](A)[sp].d([m5C])[sp].d(A)[sp].d([m5C])[sp].d(T)[sp].d(T)[sp].d(T)[sp].d(T)[sp].d(A)[sp].d([m5C])[sp].d(A)[sp].[moe](T)p.[moe](T)p.[moe]([m5C])[sp].[moe]([m5C])}$$$$ (last 3' nucleoside missing)” gave a 3 h FOB score of 1 score 0-7. Substance “RNA1{[moe]([m5C])[sp].[moe](T)p.[moe](G)p.[moe]([m5C])p.[moe](A)[sp].d([m5C])[sp].d(A)[sp].d([m5C])[sp].d(T)[sp].d(T)[sp].d(T)[sp].d([m5C])[sp].d([m5C])[sp].d(T)[sp].d([m5C])[sp].[moe]([m5C])p.[moe](T)p.[moe]([m5C])[sp].[moe](A)}$$$$ (last 3' nucleoside missing)” has a 3 h FOB score of 0 score 0-7. In the case of “RNA1{[moe]([m5C])[sp].[moe]([m5C])p.[moe](A)p.[moe](A)p.[moe](T)[sp].d(A)[sp].d(T)[sp].d(T)[sp].d(T)[sp].d(A)[sp].d(T)[sp].d(A)[sp].d(G)[sp].d(G)[sp].d(T)[sp].[moe](G)p.[moe]([m5C])p.[moe](T)[sp].[moe](G)}$$$$ (last 3' nucleoside missing)”, the 3 h FOB score is reported as 3.5 score 0-7. Work on “RNA1{[moe]([m5C])[sp].[moe]([m5C])p.[moe](A)p.[moe](A)p.[moe](T)p.d(A)[sp].d(T)[sp].d(T)[sp].d(T)[sp].d(A)[sp].d(T)[sp].d(A)[sp].d(G)[sp].d(G)[sp].d(T)[sp].[moe](G)p.[moe]([m5C])p.[moe](T)[sp].[moe](G)}$$$$ (last 3' nucleoside missing)” yielded a 3 h FOB score of 1.75 score 0-7. Work on “RNA1{[moe]([m5C])[sp].[moe]([m5C])p.[moe]([m5C])p.[moe](A)p.[moe](A)[sp].d(T)[sp].d(A)[sp].d(A)[sp].d(T)[sp].d([m5C])[sp].d(T)[sp].d(G)[sp].d(A)[sp].d([m5C])[sp].d(A)[sp].[moe](T)p.[moe]([m5C])p.[moe]([m5C])[sp].[moe](T)}$$$$ (last 3' nucleoside missing)” yielded a 3 h FOB score of 1.5 score 0-7.
